Literature values in patent US20170151174A1, “MAGNETOENZYMATIC CARRIER SYSTEM FOR IMAGING AND TARGETED DELIVERY AND RELEASE OF ACTIVE AGENTS” (priority 2014, published 2017).

Tested on: colon HT-29 cancer cells
Settings: SMase activity of 0.5 U/ml

Question: For sphingomyelinase [SMase], which cell death is on record?
Answer: 80%
